Laboratory results from ChEMBL document CHEMBL4406917, “Approaches for Prevention and Treatment of Neurodegenerative Diseases: ALS and Alzheimer's” (ACS Med Chem Lett, 2019).
Converted amounts (≈) assume the structure as drawn.

How the values were obtained:
[1] = Toxicity in SOD1-G93A mutant-induced ALS C57BL/6 mouse model assessed as effect on animal survival at 50 mg/kg, ip; format: organism-based; settings: in vivo
SH-SY5Y = assay: (§1) Activation of NF-KappaB (unknown origin) expressed in SH-SY5Y cells co-transfected with pNFkappaB-Luc plasmid measured after 24 hrs by Bright-Glo luciferase assay; format: cell-based; settings: Homo sapiens
[2] = as §1; format: cell-based; settings: Homo sapiens
[3] = Drug uptake in brain of SOD1-G93A mutant-induced ALS C57BL/6 mouse model at 50 mg/kg, ip measured within 30 mins; format: ADME, organism-based; settings: in vivo, 0.5 h
[4] = Drug uptake in plasma of SOD1-G93A mutant-induced ALS C57BL/6 mouse model at 50 mg/kg, ip measured within 30 mins; format: ADME, organism-based; settings: in vivo, 0.5 h
[5] = Kinetic solubility of compound at pH 7.4 by shake flask method; format: physicochemical; settings: buffer, read-out: Kinetic_solubility

solubility kinetic [5] [µM] | SMILES | Activity [1] | ECmax (SH-SY5Y) [µM] | EC50 [2] [nM] | Drug uptake [3] | Drug uptake [4]
– | Cc1cccnc1Nc1nc(-c2ccccn2)cs1 | Non-Toxic | 40 | 210 | Active | Active
56 (≈ 16.7 µg/mL) | O=C(O)c1cccc(-c2cnc(Nc3ccccc3F)o2)c1 | – | 23.5 | – | – | –
– | COC(=O)c1ccc(-c2cnc(Nc3c(F)cccc3F)o2)cc1 | – | 42.6 | – | – | –
– | O=C(/C=C\Nc1ccccc1Br)c1ccc2c(c1)OCO2 | Non-Toxic | 26 | 500 | Active | Active
